Publication PMC4915154, “Development of background-free tame fluorescent probes for intracellular live cell imaging” (Nature Communications, 2016)

How the values were obtained:
[1] = tested on: U-2 OS and CHO cell lines; assay: Cellular retention and efflux characteristics test (before/after washing imaging, retaining ratio RR); format: cell-based, human (U-2 OS), Chinese hamster (CHO); conditions: 30 min; for Experimentally observed group: U-2 OS and CHO cell lines, probe 1 μM, imaged before and 10 min after washing; for Cellular retention after washing (probe signal): CHO and U-2 OS cells, 1 uM probe
Description: To expedite an efficient strategy for ‘tame' probe development, we set up a system to predict cellular properties of fluorescent probes via phenotypic high-throughput screening (HTS), cheminformatics and statistical analysis (Fig. 1a). As the first step, we conducted phenotypic HTS to investigate cell permeability and nonspecific binding properties of the probes in a training set. We tested about 2,085 probes consisted of a wide range photophysical properties from numerous fluorophore cores such as BODIPY[12][13][14][15], xanthone, rosamine, cyanine[19][20] and ACEMAN[21]. Their cellular influx and efflux profiles were examined in two types of mammalian cells, U-2 OS and CHO. These cell lines were chosen due to their flexibility in genetic manipulation, adaptability to various culture conditions and versatility in wide biomedical research such as gene expression, toxicity screening, recombinant protein and live cell imaging. Each of the probes was added into live cells and cell image was taken after 30 min by ImageXpress Micro cellular imaging system (Molecular Device). The cells were then washed with fresh growth media, and after another 10 min, a second image was taken to check the completeness of probe washing out of the cell. The first and second imaging facilitated influx (before washing, BW) and efflux (after washing, AW) measurements, respectively (Supplementary Fig. 1).
To measure the influx and efflux of the probes, an automated quantitative intensity-based image analysis was then performed by Multi-Wavelength Cell Scoring analysis using MetaXpress High Content Image software. Retaining ratio (RR, per cent ratio of the average intensity of AW image over BW image) was computed to classify probes into the three phenotypic groups. For each cell in the image, the nuclei and cell region were segmented to provide approximate cellular boundaries. Fluorescence intensity was then quantified on a cell-by-cell basis by the following steps: (i) selecting the image of interest, (2) specifying the width of the stained cell area, (3) adjusting the intensity above local background for detection specificity, and (4) calculating fluorescence intensity with specified reporting parameters. Average fluorescence intensity for each BW and AW images was calculated for each probes and cell lines, and was then used as input in RR calculation (Supplementary Figs 2 and 3).
U-2 OS, a human osteosarcoma cell line, and CHO, a Chinese hamster ovary cell line, (from ATCC) were cultured in Dulbecco's modified eagle's medium (DMEM) (Invitrogen, CA, USA) supplemented with fetal bovine serum (FBS) (10%) and penicillin–streptomycin (1%). Materials used in the cell culture were purchased from Invitrogen. U-2 OS and CHO cells were seeded onto 96-well plate in growth media at 37 °C in the presence of 5% CO2 and were then allowed to attach and grow to 70–80% confluence. Library probes were dissolved in dimethylsulfoxide (DMSO) to make the 1 mM solution, and stored in −20 °C. Before HTS experiment, the growth media was aspirated and replaced by 200 μl fresh growth media containing probes in final concentration of 1 μM and nuclei dye Hoechst 33342. Plates were incubated for 30 min at 37 °C then were imaged using ImageXpress Micro cellular imaging system (Molecular Device) with × 10 objective lens. Immediately after image acquisition, the cells were washed with fresh growth media, and transferred back to a 37 °C cell incubator for further incubation. After 10 min, cells were again imaged (AW image). The first imaging step allowed influx measurement of BW image , while the second imaging step allowed out-flux measurement of AW image. Images of two regions per well were acquired with DAPI, FITC, TRITC or Texas Red filter sets according to probes' excitation and emission wavelength. Experiment was performed in duplicate. Cellular retention and efflux characteristics test for other synthesized probes were also done by using the same protocol. […]

[2] = tested on: azide-tagged intracellular organelles in U-2 OS cells; assay: Live cell SPAAC labelling of azide-tagged organelles (mitochondria, lysosome, golgi apparatus); format: cell-based, human; conditions: U-2 OS cells pre-treated with TPP-Az, Sphingo-Az or Morph-Az, 2 μM probe, 1 h, 37 °C
Description: Next, we investigated intracellular imaging in live cells using CO-1. We synthesized various azide-bearing reporters: TPP-Az, a triphenylphosphonium analogue which accumulates in mitochondria; Sphingo-Az, a ceramide analogue to target golgi apparatus; and Morph-Az, an azide derivative with morpholine moiety as a directing group for lysosome (Fig. 3a). SPAAC covalent labelling reactions between CO-1 and all azide reporters in vitro were clean and rapid. We anticipated that the cell permeable CO-1 is capable of labelling any azide reporters effectively, regardless the reporters' cellular localization. We added 2 μM CO-1 to the growth media of U-2 OS cells pre-treated with TPP-Az, Sphingo-Az or Morph-Az separately. Confocal fluorescence images were then taken after probe washing.
Figure 3 Live cell imaging with CO-1. (a) Chemical structures and schematic illustration of the covalent labelling of azide-tagged organelles using CO-1 in live cells. (b) Fluorescence imaging of mitochondria, lysosome and golgi apparatus in U-2 OS cells labelled with CO-1. Cells pre-treated with TPP-Az, Morph-Az or Sphingo-Az were incubated with 2 μM CO-1 in growth media at 37 °C for 1 h and followed by counterstaining with organelle trackers. Scale bar, 15 μm. (c) Fluorescence imaging of histone H2B in live U-2 OS. U-2 OS cells were co-transfected with plasmids pIre-Azi3 and pmH2B-6-mKate2-16tag to incorporate UAA Azi into H2B-mKate2 at site 16. After Azi incorporation, cells were labelled with 10 μM CO-1 for 90 min at 37 °C. Cells were then washed and imaged. The mKate2 (red) signals were detected in cell nuclei only, and colocalized with the CO-1 (green) signals in the merged image. Scale bar, 5 μm.
U-2 OS cells were treated with 5 μM TPP-Az, in culture media for 2 h at 37 °C. After incubation, cells were washed and added with 2 μM CO-1 probe. Labelling was allowed to proceed for 1 h at 37 °C in the incubator chamber. […]
Fluorescence imaging of mitochondria, lysosome and golgi apparatus in U-2 OS cells labeled with CO-1H. […] In contrast to CO-1, high fluorescence background from CO-1H was observed. […]

[3] = Spectroscopic properties (absorbance, emission, extinction coefficient, quantum yield); format: physicochemical; conditions: 10 μM in DMSO
Method: Supplementary Table 9. Spectrocopic properties and purity table for CO-1 and CO-1H.
Calculated mass, experimental mass, absorbance maximum (λabs), fluorescent emission maximum (λem), extinction coefficient (ε), quantum yield (Φ), and purity. mass m/z λabs λem ε Purity […]
Absorbance and fluorescence emission data were recorded by a Synergy 4, Biotek Inc. fluorescent plate reader at 10 μM concentration in DMSO in 96-well plates. HRMS a: found mass (M-H), b: tetramethyl BODIPY was used as standard, c: purity data was calculated on the basis of the integration in HPLC trace at 254 nm.

Row | Structure (SMILES) | Experimentally observed group [1] | further results
1 | Cc1cc(/C=C/c2ccc(B(O)O)cc2)n2c1C(c1ccc(N)cc1)=C1C=CC=[N+]1[B-]2(F)F [BOR-1H] | H-group (those with RR >5% were classified into H-group) | 
2 | Cc1cc(/C=C/c2ccc(B(O)O)cc2)n2c1C(CCC(=O)N1CCOCC1)=C1C=CC(CCC(=O)N(C)C)=[N+]1[B-]2(F)F [BOR-1] | L-group (Probes (FI(BW) >200) with rapid efflux were observed to have a RR of <5%, and thus were classified into L-group) | Cellular retention after washing (probe signal) [1]: significantly decreased after washing
3 | COC(=O)c1ccc(C2=C3C(C)=CC(C)=[N+]3[B-](F)(F)n3c(/C=C/c4ccc(B(O)O)cc4)cc(C)c32)cc1 [BOR-2H] | H-group (those with RR >5% were classified into H-group) | 
4 | Cc1cc(C)n2c1C(CCC(=O)N1CCOCC1)=C1C=CC(CCC(=O)NCCC(=O)N3Cc4ccccc4C#Cc4ccccc43)=[N+]1[B-]2(F)F [CO-1H] | H-group (those with RR >5% were classified into H-group) | Fluorescence background after washing [2]: high-fluorescence background; Cellular retention after washing (probe signal) [1]: retained inside the cells; ε [3]: 83333 M⁻¹ cm⁻¹; λabs [3]: 500 nm; λem [3]: 520 nm; QY (Φ) ([3]; tetramethyl BODIPY as standard): 0.83
5 | NCCNC1=C2C=CC=[N+]2[B-](F)(F)n2cccc21 [CS-2] | L-group (Probes (FI(BW) >200) with rapid efflux were observed to have a RR of <5%, and thus were classified into L-group) | 
6 | CCc1c(C)c2n(c1C)[B-](F)(F)[N+]1=CC=CC1=C2SC [CS-3] | L-group (Probes (FI(BW) >200) with rapid efflux were observed to have a RR of <5%, and thus were classified into L-group) | 
7 | CCc1c(C)c2n(c1C)[B-](F)(F)[N+]1=CC=CC1=C2 [CS-8] | L-group (Probes (FI(BW) >200) with rapid efflux were observed to have a RR of <5%, and thus were classified into L-group) | 
8 | COC1=C2C=CC(C)=[N+]2[B-](F)(F)n2c(C)ccc21 [CS-11] | L-group (Probes (FI(BW) >200) with rapid efflux were observed to have a RR of <5%, and thus were classified into L-group) | 
9 | F[B-]1(F)n2cccc2C(N2CCOCCOCCOCC2)=C2C=CC=[N+]21 [CS-13] | L-group (Probes (FI(BW) >200) with rapid efflux were observed to have a RR of <5%, and thus were classified into L-group) | 
10 | F[B-]1(F)n2cccc2C(N2CCOCCOCCOCCOCC2)=C2C=CC=[N+]21 [CS-14] | N-group (Probes in which BW images having FI(BW) ≤200 were classified as N-group) | 
11 | CC1=[N+]2C(=C(N3CCNCC3)c3ccc(C)n3[B-]2(F)F)C=C1 [CS-42] | L-group (Probes (FI(BW) >200) with rapid efflux were observed to have a RR of <5%, and thus were classified into L-group) | 
12 | CCOC(=O)CCNC1=C2C=CC(CC)=[N+]2[B-](F)(F)n2c(CC)ccc21 [CS-56] | L-group (Probes (FI(BW) >200) with rapid efflux were observed to have a RR of <5%, and thus were classified into L-group) | 
13 | CC(C)(C)NC1=C2C=CC=[N+]2[B-](F)(F)n2cccc21 [CS-101] | L-group (Probes (FI(BW) >200) with rapid efflux were observed to have a RR of <5%, and thus were classified into L-group) | 
